Experimental data as given in PubChem BioAssay (NCI).
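Protocol summary: plate cells (96-well), add compound at 5 concentrations, incubate 48 h, interpolate endpoints linearly. Abbreviation: GI50, concentration required for 50% inhibition of growth. At the TGI there is no net growth.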

Assays:
Assay in all cases: inhibition of tumour cell growth, NCI panel, 48 h
SNB-75 CNS = test system: SNB-75 CNS
SK-MEL-28 melanoma = test system: SK-MEL-28 melanoma
NCI/ADR-RES ovarian = test system: NCI/ADR-RES ovarian
UACC-257 melanoma = test system: UACC-257 melanoma
K-562 leukemia = test system: K-562 leukemia
NCI-H522 lung = test system: NCI-H522 lung
MOLT-4 leukemia = test system: MOLT-4 leukemia
RPMI-8226 leukemia = test system: RPMI-8226 leukemia
MALME-3M melanoma = test system: MALME-3M melanoma
SF-539 CNS = test system: SF-539 CNS

## CN[C@@H](C)C(=O)N[C@H]1CN(S(=O)(=O)c2cccc(S(=O)(=O)N3CC[C@H]4CC[C@@H](C(=O)NC(c5ccccc5)c5ccccc5)N4C(=O)[C@@H](NC(=O)[C@H](C)NC)C3)c2)CC[C@H]2CC[C@@H](C(=O)NC(c3ccccc3)c3ccccc3)N2C1=O
SNB-75 CNS
  TGI: 0.721 µM
SK-MEL-28 melanoma
  GI50: 15.6 µM
  TGI: 29.7 µM
NCI/ADR-RES ovarian
  GI50: > 100 µM
  TGI: > 100 µM
UACC-257 melanoma
  GI50: 18 µM
  TGI: 50.2 µM
K-562 leukemia
  GI50: 26.5 µM
  TGI: > 100 µM
NCI-H522 lung
  GI50: 2.43 µM
  TGI: 34.8 µM
MOLT-4 leukemia
  GI50: 47 µM
  TGI: > 100 µM
RPMI-8226 leukemia
  GI50: 3.92 µM
  TGI: 99.2 µM
MALME-3M melanoma
  GI50: < 0.0104 µM
  TGI: 0.0452 µM
SF-539 CNS
  GI50: < 0.01 µM
  TGI: 0.509 µM

## COc1ccc(OC)c(NCC(=O)n2nc(/C=C\c3ccc(O)c(OC)c3)cc2/C=C\c2ccc(O)c(OC)c2)c1
SNB-75 CNS
  GI50: 2.2 µM
  TGI: 9.75 µM
SK-MEL-28 melanoma
  GI50: 2.66 µM
  TGI: 12.3 µM
NCI/ADR-RES ovarian
  GI50: 3.5 µM
  TGI: > 100 µM
UACC-257 melanoma
  GI50: 3.28 µM
  TGI: 14.8 µM
K-562 leukemia
  GI50: 0.729 µM
  TGI: > 100 µM
NCI-H522 lung
  GI50: 1.31 µM
  TGI: 3.28 µM
MOLT-4 leukemia
  GI50: 1.11 µM
  TGI: 9.21 µM
RPMI-8226 leukemia
  GI50: 0.702 µM
  TGI: 3.54 µM
MALME-3M melanoma
  GI50: 3.01 µM
  TGI: 14.6 µM
SF-539 CNS
  GI50: 1.74 µM
  TGI: 6.15 µM

## CC(=O)ON1CCCC(P(=O)(OCOC(=O)C(C)(C)C)OCOC(=O)C(C)(C)C)C1=O (stereo not drawn)
SNB-75 CNS
  GI50: 3.31 µM
  TGI: 18.6 µM
SK-MEL-28 melanoma
  GI50: 0.483 µM
  TGI: 1.42 µM
NCI/ADR-RES ovarian
  GI50: 0.531 µM
  TGI: 4.21 µM
UACC-257 melanoma
  GI50: 2.41 µM
  TGI: 19.5 µM
K-562 leukemia
  GI50: 0.303 µM
  TGI: > 87.2 µM
NCI-H522 lung
  GI50: 0.506 µM
  TGI: 5.63 µM
MOLT-4 leukemia
  GI50: 0.511 µM
  TGI: 3.65 µM
RPMI-8226 leukemia
  GI50: 0.407 µM
  TGI: 1.89 µM
MALME-3M melanoma
  GI50: 0.453 µM
  TGI: 6.63 µM
SF-539 CNS
  GI50: 1.11 µM
  TGI: 5.8 µM

## CC(Br)C(=O)NC(CO)C(=O)O (stereo not drawn)
SNB-75 CNS
  TGI: > 100 µM
SK-MEL-28 melanoma
  TGI: > 100 µM
NCI/ADR-RES ovarian
  TGI: > 100 µM
UACC-257 melanoma
  TGI: > 100 µM
K-562 leukemia
  TGI: > 100 µM
NCI-H522 lung
  TGI: > 100 µM
MOLT-4 leukemia
  TGI: > 100 µM
RPMI-8226 leukemia
  TGI: > 100 µM
MALME-3M melanoma
  TGI: > 100 µM
SF-539 CNS
  TGI: > 100 µM

## Cc1ccc(O)cc1Nc1ccnc2ccc(S(C)(=O)=O)cc12
SNB-75 CNS
  GI50: 0.106 µM
  TGI: 1.28 µM
SK-MEL-28 melanoma
  GI50: 1.98 µM
  TGI: > 25 µM
NCI/ADR-RES ovarian
  GI50: 15.9 µM
  TGI: > 25 µM
UACC-257 melanoma
  GI50: 0.957 µM
  TGI: > 25 µM
K-562 leukemia
  GI50: 0.161 µM
  TGI: > 25 µM
NCI-H522 lung
  GI50: 5.08 µM
  TGI: > 22.1 µM
MOLT-4 leukemia
  GI50: > 19.8 µM
  TGI: > 25 µM
RPMI-8226 leukemia
  GI50: > 25 µM
  TGI: > 25 µM
MALME-3M melanoma
  GI50: 0.892 µM
  TGI: 9.35 µM
SF-539 CNS
  GI50: 1.08 µM
  TGI: 7.62 µM

## COc1cc2c(cc1Nc1nc(N3CCc4ccccc43)c3cc[nH]c3n1)N(C(=O)CN(C)C)CC2
SNB-75 CNS
  GI50: 4.88 µM
  TGI: 9.97 µM
SK-MEL-28 melanoma
  GI50: 1.4 µM
  TGI: 3.38 µM
NCI/ADR-RES ovarian
  GI50: 0.731 µM
  TGI: 2.81 µM
UACC-257 melanoma
  GI50: 4.25 µM
  TGI: 9.3 µM
K-562 leukemia
  GI50: 0.478 µM
  TGI: 1.2 µM
NCI-H522 lung
  GI50: 3.94 µM
  TGI: 11.7 µM
MOLT-4 leukemia
  GI50: 1.88 µM
  TGI: 4.79 µM
RPMI-8226 leukemia
  GI50: 1.55 µM
  TGI: 3.98 µM
MALME-3M melanoma
  GI50: 5.03 µM
  TGI: 11 µM
SF-539 CNS
  GI50: 4.88 µM
  TGI: 10.8 µM

## Cc1c(C(=N)C(C#N)C#N)c(=N)oc2c1ccc1ccccc12
SNB-75 CNS
  GI50: 13.6 µM
  TGI: 48.9 µM
SK-MEL-28 melanoma
  GI50: 22.5 µM
  TGI: 60.8 µM
NCI/ADR-RES ovarian
  GI50: 25.2 µM
  TGI: > 100 µM
UACC-257 melanoma
  GI50: 28.6 µM
  TGI: > 100 µM
K-562 leukemia
  GI50: 19.4 µM
  TGI: > 100 µM
NCI-H522 lung
  GI50: 8 µM
  TGI: 25.7 µM
MOLT-4 leukemia
  GI50: 21.7 µM
  TGI: > 100 µM
RPMI-8226 leukemia
  GI50: 20.8 µM
  TGI: 78.3 µM
MALME-3M melanoma
  GI50: 22.3 µM
  TGI: 80.7 µM
SF-539 CNS
  GI50: 20.6 µM
  TGI: 71.5 µM

## Cn1c([N+](=O)[O-])cnc1C=C1C(=O)c2ccccc2C1=O
SNB-75 CNS
  GI50: 2.99 µM
  TGI: 39.6 µM
SK-MEL-28 melanoma
  GI50: 2.56 µM
  TGI: 7.4 µM
NCI/ADR-RES ovarian
  GI50: 5.34 µM
  TGI: 83.9 µM
UACC-257 melanoma
  GI50: 3.12 µM
  TGI: 14.7 µM
K-562 leukemia
  GI50: 3.34 µM
  TGI: 16.3 µM
NCI-H522 lung
  GI50: 1.89 µM
  TGI: 4.37 µM
MOLT-4 leukemia
  GI50: 3.68 µM
  TGI: 17.6 µM
RPMI-8226 leukemia
  GI50: 3.36 µM
  TGI: 13 µM
MALME-3M melanoma
  GI50: 3.44 µM
  TGI: 11.6 µM
SF-539 CNS
  GI50: 2.6 µM
  TGI: 7.51 µM

## CCN=c1sc2c(n1NC(=O)c1cc3ccc1CCc1ccc(cc1)CC3)C(=O)c1ccccc1C2=O
SNB-75 CNS
  GI50: 0.231 µM
  TGI: 0.787 µM
SK-MEL-28 melanoma
  GI50: 0.663 µM
  TGI: 1.18 µM
NCI/ADR-RES ovarian
  GI50: 0.814 µM
  TGI: 2.39 µM
UACC-257 melanoma
  GI50: 0.551 µM
  TGI: 1.07 µM
K-562 leukemia
  GI50: 0.92 µM
  TGI: 13 µM
NCI-H522 lung
  GI50: 0.54 µM
  TGI: 1.31 µM
MOLT-4 leukemia
  GI50: 0.634 µM
  TGI: 1.94 µM
RPMI-8226 leukemia
  GI50: 0.769 µM
  TGI: 2.2 µM
MALME-3M melanoma
  GI50: 0.524 µM
  TGI: 0.978 µM
SF-539 CNS
  GI50: 0.556 µM
  TGI: 1.04 µM

## Cc1cccc(NC(=O)c2sc3nc4c(cc3c2N)C(=O)CCC4)c1
SNB-75 CNS
  GI50: 0.272 µM
  TGI: > 39.4 µM
SK-MEL-28 melanoma
  GI50: 1.53 µM
  TGI: > 62.3 µM
NCI/ADR-RES ovarian
  GI50: 0.259 µM
  TGI: > 49.8 µM
UACC-257 melanoma
  TGI: > 100 µM
K-562 leukemia
  GI50: 0.105 µM
  TGI: > 100 µM
NCI-H522 lung
  GI50: 0.124 µM
  TGI: 1.68 µM
MOLT-4 leukemia
  GI50: 25 µM
  TGI: > 100 µM
RPMI-8226 leukemia
  GI50: 0.594 µM
  TGI: > 100 µM
MALME-3M melanoma
  GI50: 0.311 µM
  TGI: 16.9 µM
SF-539 CNS
  GI50: 0.199 µM
  TGI: 0.616 µM

## O=c1c2ccccc2sc2c(CO)ccc(NCCN3CCCCC3)c12
SNB-75 CNS
  TGI: 19.5 µM
SK-MEL-28 melanoma
  TGI: 8.54 µM
NCI/ADR-RES ovarian
  TGI: 9.97 µM
UACC-257 melanoma
  TGI: 3.76 µM
K-562 leukemia
  TGI: 5.36 µM
NCI-H522 lung
  TGI: 3.86 µM
MOLT-4 leukemia
  TGI: 5.36 µM
RPMI-8226 leukemia
  TGI: 4.6 µM
MALME-3M melanoma
  TGI: 5.2 µM
SF-539 CNS
  TGI: 16.2 µM

## CCN(C)c1nc(N(C)CC)c2nc(N(C)CC)nc(N(C)CC)c2n1
SNB-75 CNS
  TGI: > 100 µM
SK-MEL-28 melanoma
  TGI: > 100 µM
NCI/ADR-RES ovarian
  TGI: > 100 µM
UACC-257 melanoma
  TGI: > 100 µM
K-562 leukemia
  TGI: > 100 µM
NCI-H522 lung
  TGI: > 100 µM
MOLT-4 leukemia
  TGI: > 100 µM
RPMI-8226 leukemia
  TGI: > 100 µM
MALME-3M melanoma
  TGI: > 100 µM
SF-539 CNS
  TGI: > 100 µM

## OC1(c2ccc(Cl)c(C(F)(F)F)c2)CCN(CCCC(c2ccc(F)cc2)c2ccc(F)cc2)CC1
SNB-75 CNS
  GI50: 0.713 µM
  TGI: 1.43 µM
SK-MEL-28 melanoma
  GI50: 0.889 µM
  TGI: 1.58 µM
NCI/ADR-RES ovarian
  GI50: 0.863 µM
  TGI: 1.77 µM
UACC-257 melanoma
  GI50: 0.826 µM
  TGI: 1.51 µM
K-562 leukemia
  GI50: 0.781 µM
  TGI: 1.75 µM
NCI-H522 lung
  GI50: 0.902 µM
  TGI: 1.79 µM
MOLT-4 leukemia
  GI50: 1.03 µM
  TGI: 2.38 µM
RPMI-8226 leukemia
  GI50: 1.1 µM
  TGI: 2.67 µM
MALME-3M melanoma
  GI50: 0.934 µM
  TGI: 1.74 µM
SF-539 CNS
  GI50: 0.943 µM
  TGI: 1.69 µM
